Laboratory results taken from patent publication US10219516B2, “Molecules having pesticidal utility, and intermediates, compositions, and processes, related thereto” (priority 2015, dated 2019).
Where two headings read alike, the source gives them in different places.

Tests used:
Type in all cases: in vivo
[1] = test system: Beet Armyworm (Spodoptera exigua, LAPHEG); assay: Bioassay on Beet Armyworm (BAW), 128-well diet tray assay
How it was run: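 Percent mortality, averaged across eight replicate wells, was scored after five to seven days at 25° C. under a 14:10 light-dark cycle. Each well's diet carried 50 μg/cm^2 of the dried test molecule and held one to five second instar larvae.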

[2] = test system: Cabbage Looper (Trichoplusia ni, TRIPNI); assay: Bioassay on Cabbage Looper (CL), 128-well diet tray assay; conditions: Trichoplusia ni
How it was run: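 Percent mortality, averaged across eight replicate wells, was scored after five to seven days at 25° C. under a 14:10 light-dark cycle. Each well held one to five second instar larvae on artificial diet treated at 50 μg/cm^2 with compound from 90:10 acetone-water, allowed to dry before infestation.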

[3] = test system: Green Peach Aphid (Myzus persicae, MYZUPE); assay: Bioassay on Green Peach Aphid (GPA), foliar spray on infested cabbage seedlings; conditions: 72 h
Description: Certain molecules disclosed in this document were tested against GPA using procedures described in the following example. In the reporting of the results, the “GPA & YFM Rating Table” was used (See Table Section).
Cabbage seedlings grown in 3-inch pots, with 2-3 small (3-5 cm) true leaves, were used as test substrate. The seedlings were infested with 20-50 GPA (wingless adult and nymph stages) one day prior to chemical application. Four pots with individual seedlings were used for each treatment. Test molecules (2 mg) were dissolved in 2 mL of acetone/methanol (1:1) solvent, forming stock solutions of 1000 ppm test molecule. The stock solutions were diluted 5× with 0.025% Tween 20 in water to obtain the solution at 200 ppm test molecule. A hand-held aspirator-type sprayer was used for spraying a solution to both sides of […] leaves until runoff. Reference plants (solvent check) were sprayed with the diluent only containing 20% by volume of acetone/methanol (1:1) solvent. Treated plants were held in a holding room for three days at approximately 25° C. and ambient relative humidity (RH) prior to grading. Evaluation was conducted by counting the number of live aphids per plant under a microscope. Percent control was measured using Abbott's correction formula (W. S. Abbott, “A Method of Computing the Effectiveness of an Insecticide” 3. Econ. Entomol. 18 (1925), pp. 265-267) as follows. Corrected % Control=100*(X−Y)/X where X=No. of live aphids on solvent check plants and Y=No. of live aphids on treated plants. The results are indicated in the table entitled “Table ABC: Biological Results” (See Table Section).

[4] = test system: Yellow Fever Mosquito (Aedes aegypti, AEDSAE); assay: Bioassay on Yellow Fever Mosquito (YFM), 96-well plate larval assay; conditions: for YFM (Biological Results, rating): Species YFM (Yellow Fever Mosquito)
How it was run: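 Each well was scored for mortality after 3 days at room temperature under a non-evaporative lid. Test molecules came from DMSO masters (4000 ppm stock) diluted with water/acetone 90:10 and dispensed into six replicate plates, which were then infested with roughly 1-day-old larvae in liver-powder water.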

[5] = Species BAW (Beet Armyworm), read-out: BAW (Biological Results, rating)
[6] = Species CL (Cabbage Looper), read-out: CL (Biological Results, rating)
[7] = foliar, Species GPA (Green Peach Aphid), read-out: GPA (Biological Results, rating)

N#Cc1ccc(NC(=O)c2cc(NC(=O)[C@H]3[C@H](c4cc(Cl)cc(Cl)c4)C3(Cl)Cl)ccc2Cl)cn1 (relative stereo) [F33, trans-2-Chloro-N-(6-cyanopyridin-3-yl)-5-(2,2-dichloro-3-(3,5-dichlorophenyl)cyclopropane-1-carboxamido)benzamide]
pest or weed control at 50 µg/cm2 [1, 5]: 50 to 100% | pest or weed control at 50 µg/cm2 [2, 6]: 50 to 100% | pest or weed control at 200 µg/mL [3, 7]: 0 to 80% | YFM (Biological Results, rating) [4]: A (80-100)

CN(C(=O)c1cc(NC(=O)[C@H]2[C@H](c3ccc(Cl)c(F)c3)C2(Cl)Cl)ccc1Cl)c1ccc(F)cc1 (relative stereo) [PF35, trans-2-Chloro-5-(2,2-dichloro-3-(4-chloro-3-fluorophenyl)cyclopropane-1-carboxamido)-N-(4-fluorophenyl)-N-methylbenzamide]
pest or weed control at 50 µg/cm2 ([1]; Beet Armyworm, 128-well diet tray assay, read-out: BAW rating): 50 to 100% | pest or weed control at 50 µg/cm2 ([2]; Cabbage Looper, 128-well diet tray assay, read-out: CL rating): 50 to 100% | pest or weed control at 200 µg/mL ([3]; Green Peach Aphid, foliar spray on cabbage seedlings, read-out: GPA rating): 80 to 100% | YFM rating ([4]; Yellow Fever Mosquito, 96-well plate larval assay): A (80-100)

CN(C(=O)c1cc(NC(=O)[C@H]2[C@H](c3ccc(OC(F)(F)F)c(Cl)c3)C2(Cl)Cl)ccc1Cl)c1ccc(F)cc1 (relative stereo) [F80, trans-2-Chloro-5-(2,2-dichloro-3-(3-chloro-4-(trifluoromethoxy)phenyl)cyclopropane-1-carboxamido)-N-(4-fluorophenyl)-N-methylbenzamide]
pest or weed control at 50 µg/cm2 [1, 5]: 50 to 100% | pest or weed control at 50 µg/cm2 [2, 6]: 50 to 100% | pest or weed control at 200 µg/mL [3, 7]: 80 to 100% | YFM (Biological Results, rating) [4]: A (80-100)

O=C(Nc1ccc(F)cc1F)c1cc(NC(=O)[C@H]2[C@H](c3cc(Cl)c(Cl)c(Cl)c3)C2(Cl)Cl)ccc1Cl (relative stereo) [F40, trans-2-Chloro-5-(2,2-dichloro-3-(3,4,5-trichlorophenyl)cyclopropane-1-carboxamido)-N-(2,4-difluorophenyl)benzamide]
pest or weed control at 50 µg/cm2 [1, 5]: 50 to 100% | pest or weed control at 50 µg/cm2 [2, 6]: 50 to 100% | pest or weed control at 200 µg/mL [3, 7]: 80 to 100% | YFM (Biological Results, rating) [4]: B (More than 0-Less than 80)

CCCN(C(=O)c1cc(NC(=O)[C@H]2[C@H](c3cc(Cl)cc(Cl)c3)C2(Cl)Cl)ccc1Cl)c1ccc(F)cc1 (relative stereo) [F101, trans-2-Chloro-5-(2,2-dichloro-3-(3,5-dichlorophenyl)cyclopropane-1-carboxamido)-N-(4-fluorophenyl)-N-propylbenzamide]
pest or weed control at 50 µg/cm2 [1, 5]: 50 to 100% | pest or weed control at 50 µg/cm2 [2, 6]: 50 to 100% | pest or weed control at 200 µg/mL [3, 7]: 0 to 80% | YFM (Biological Results, rating) [4]: A (80-100)

O=C(Nc1ccc(F)cc1)c1cc(NC(=O)[C@H]2[C@H](c3cc(Cl)cc(Cl)c3)C2(Cl)Cl)ccc1Cl [F165, 2-Chloro-5-((1R,3R)-2,2-dichloro-3-(3,5-dichlorophenyl)cyclopropane-1-carboxamido)-N-(4-fluorophenyl)benzamide]
pest or weed control at 50 µg/cm2 [1, 5]: 50 to 100% | pest or weed control at 50 µg/cm2 [2, 6]: 50 to 100% | pest or weed control at 200 µg/mL [3, 7]: 80 to 100% | YFM (Biological Results, rating) [4]: B (More than 0-Less than 80)

Cc1ccccc1NC(=O)c1cc(NC(=O)[C@H]2[C@H](c3cc(Cl)cc(Cl)c3)C2(Cl)Cl)ccc1Cl (relative stereo) [F9, trans-2-Chloro-5-(2,2-dichloro-3-(3,5-dichlorophenyl)cyclopropane-1-carboxamido)-N-(o-tolyl)benzamide]
pest or weed control at 50 µg/cm2 [1, 5]: 50 to 100% | pest or weed control at 50 µg/cm2 [2, 6]: 50 to 100% | pest or weed control at 200 µg/mL [3, 7]: 80 to 100% | YFM (Biological Results, rating) [4]: A (80-100)

Cc1cc(F)ccc1NC(=O)c1cc(NC(=O)[C@H]2[C@H](c3cc(Cl)cc(Cl)c3)C2(Cl)Cl)ccc1Cl (relative stereo) [F37, trans-2-Chloro-5-(2,2-dichloro-3-(3,5-dichlorophenyl)cyclopropane-1-carboxamido)-N-(4-fluoro-2-methylphenyl)benzamide]
pest or weed control at 50 µg/cm2 [1, 5]: 50 to 100% | pest or weed control at 50 µg/cm2 [2, 6]: 50 to 100% | pest or weed control at 200 µg/mL [3, 7]: 80 to 100% | YFM (Biological Results, rating) [4]: A (80-100)

O=C(Nc1ccc(F)cc1)c1cc(NC(=O)[C@H]2[C@H](c3cc(Cl)cc(C(F)(F)F)c3)C2(Cl)Cl)ccc1Cl (relative stereo) [F87, trans-2-Chloro-5-(2,2-dichloro-3-(3-chloro-5-(trifluoromethyl)phenyl)cyclopropane-1-carboxamido)-N-(4-fluorophenyl)benzamide]
pest or weed control at 50 µg/cm2 [1, 5]: 50 to 100% | pest or weed control at 50 µg/cm2 [2, 6]: 50 to 100% | pest or weed control at 200 µg/mL [3, 7]: 80 to 100% | YFM (Biological Results, rating) [4]: A (80-100)

CN(C(=O)c1cc(NC(=O)[C@H]2[C@H](c3ccc(Cl)c(Cl)c3)C2(Cl)Cl)ccc1Cl)c1ccc(F)cc1 (relative stereo) [F53, trans-2-Chloro-5-(2,2-dichloro-3-(3,4-dichlorophenyl)cyclopropane-1-carboxamido)-N-(4-fluorophenyl)-N-methylbenzamide]
pest or weed control at 50 µg/cm2 [1, 5]: 50 to 100% | pest or weed control at 50 µg/cm2 [2, 6]: 50 to 100% | pest or weed control at 200 µg/mL [3, 7]: 80 to 100% | YFM (Biological Results, rating) [4]: A (80-100)

CCN(C(=O)c1cc(NC(=O)[C@H]2[C@H](c3cc(Cl)cc(Cl)c3)C2(Cl)Cl)ccc1Cl)c1ccc(F)cc1 (relative stereo) [F99, trans-2-Chloro-5-(2,2-dichloro-3-(3,5-dichlorophenyl)cyclopropane-1-carboxamido)-N-ethyl-N-(4-fluorophenyl)benzamide]
pest or weed control at 50 µg/cm2 [1, 5]: 50 to 100% | pest or weed control at 50 µg/cm2 [2, 6]: 50 to 100% | pest or weed control at 200 µg/mL [3, 7]: 80 to 100% | YFM (Biological Results, rating) [4]: B (More than 0-Less than 80)

Cc1cc(C#N)ccc1NC(=O)c1cc(NC(=O)[C@H]2[C@H](c3cc(Cl)c(Cl)c(Cl)c3)C2(Cl)Cl)ccc1Cl (relative stereo) [F54, trans-2-Chloro-N-(4-cyano-2-methylphenyl)-5-(2,2-dichloro-3-(3,4,5-trichlorophenyl)cyclopropane-1-carboxamido)benzamide]
pest or weed control at 50 µg/cm2 [1, 5]: 50 to 100% | pest or weed control at 50 µg/cm2 [2, 6]: 50 to 100% | pest or weed control at 200 µg/mL [3, 7]: 0 to 80% | YFM (Biological Results, rating) [4]: A (80-100)

CN(C(=O)c1cc(NC(=O)[C@H]2[C@H](c3cc(Cl)cc(Cl)c3)C2(Cl)Cl)ccc1Cl)c1ccc(F)cc1 (relative stereo) [F19, trans-2-Chloro-5-(2,2-dichloro-3-(3,5-dichlorophenyl)cyclopropane-1-carboxamido)-N-(4-fluorophenyl)-N-methylbenzamide]
pest or weed control at 50 µg/cm2 [1, 5]: 50 to 100% | pest or weed control at 50 µg/cm2 [2, 6]: 50 to 100% | pest or weed control at 200 µg/mL [3, 7]: 80 to 100% | YFM (Biological Results, rating) [4]: A (80-100)

O=C(Nc1ccc(F)cc1)c1ccc(Cl)c(NC(=O)[C@H]2[C@H](c3cc(Cl)cc(Cl)c3)C2(Cl)Cl)c1 (relative stereo) [F130, trans-4-Chloro-3-(2,2-dichloro-3-(3,5-dichlorophenyl)cyclopropane-1-carboxamido)-N-(4-fluorophenyl)benzamide]
pest or weed control at 50 µg/cm2 [2, 6]: 50 to 100% | pest or weed control at 200 µg/mL [3, 7]: 0 to 80% | YFM (Biological Results, rating) [4]: B (More than 0-Less than 80)

O=C(Nc1cc(F)cc(F)c1)c1cc(NC(=O)[C@H]2[C@H](c3cc(Cl)cc(Cl)c3)C2(Cl)Cl)ccc1Cl (relative stereo) [F154, trans-2-Chloro-5-(2,2-dichloro-3-(3,5-dichlorophenyl)cyclopropane-1-carboxamido)-N-(3,5-difluorophenyl)benzamide]
pest or weed control at 50 µg/cm2 [1, 5]: 50 to 100% | pest or weed control at 50 µg/cm2 [2, 6]: 50 to 100% | pest or weed control at 200 µg/mL [3, 7]: 80 to 100%
